According to publication PMC9958325 (Nature Communications, 2023):
Where “and” joins values, the source holds several entries; their conditions need not be identical. Equal entries are not always repeated. Where two headings read alike, the source gives them in different places.

Key:
human calpain = molecular target: T1, human calpain (Homo sapiens, UniProt P07384); test: Human calpain activity assay; type: biochemical; settings: for %inhibition against humanCalpain: triplicate
T1 sequence (P07384 2-714): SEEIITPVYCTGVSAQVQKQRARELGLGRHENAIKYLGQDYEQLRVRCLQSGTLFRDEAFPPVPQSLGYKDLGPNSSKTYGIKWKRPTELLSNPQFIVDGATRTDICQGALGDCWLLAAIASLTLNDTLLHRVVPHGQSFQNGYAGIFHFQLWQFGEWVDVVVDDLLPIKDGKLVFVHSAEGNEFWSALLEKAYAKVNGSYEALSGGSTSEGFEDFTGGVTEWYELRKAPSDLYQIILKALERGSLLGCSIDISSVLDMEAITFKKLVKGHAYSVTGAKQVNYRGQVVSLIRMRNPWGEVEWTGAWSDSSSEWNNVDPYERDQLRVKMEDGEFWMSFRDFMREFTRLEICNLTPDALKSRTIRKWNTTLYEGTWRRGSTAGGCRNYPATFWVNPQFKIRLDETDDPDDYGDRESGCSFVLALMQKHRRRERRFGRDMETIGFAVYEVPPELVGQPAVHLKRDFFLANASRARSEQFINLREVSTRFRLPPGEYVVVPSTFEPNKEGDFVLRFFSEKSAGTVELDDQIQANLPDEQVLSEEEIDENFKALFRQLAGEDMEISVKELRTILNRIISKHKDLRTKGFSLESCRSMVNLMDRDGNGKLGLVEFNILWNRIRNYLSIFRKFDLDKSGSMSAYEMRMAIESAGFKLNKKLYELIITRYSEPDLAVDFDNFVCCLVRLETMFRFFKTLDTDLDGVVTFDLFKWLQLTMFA
T1 sequence (P04632 1-268 partner): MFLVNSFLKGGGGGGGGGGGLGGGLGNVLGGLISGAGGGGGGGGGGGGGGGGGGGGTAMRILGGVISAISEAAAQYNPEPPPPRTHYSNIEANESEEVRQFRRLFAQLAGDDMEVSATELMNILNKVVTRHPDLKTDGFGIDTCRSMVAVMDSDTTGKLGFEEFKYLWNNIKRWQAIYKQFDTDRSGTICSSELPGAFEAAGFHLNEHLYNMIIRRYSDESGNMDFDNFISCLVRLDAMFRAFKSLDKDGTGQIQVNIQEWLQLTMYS

[1] = system: SARS-CoV-2 TKYX00012/ο BA.1; test: microbe, parasite or virus in culture; type: cell-based
[2] = system: SARS-CoV-2 TKYS02037/ο BA.2; test: microbe, parasite or virus in culture; type: cell-based
[3] = mouse, in vivo, ip, 120 mg/kg
[4] = system: SARS-CoV-2^WK521 in A549-ACE2-TMPRSS2 cells; test: Antiviral assay, A549-ACE2-TMPRSS2 cells, WK521; type: cell-based
[5] = system: SARS-CoV-2 TKYTS14631/ο BA.5; test: microbe, parasite or virus in culture; type: cell-based
HeLa-ACE2-TMPRSS2 cells = test: Intracellular concentrations of compounds (LC/MS), HeLa-ACE2-TMPRSS2 cells; settings: 6 h; for Intracellular amount relative to nirmatrelvir: HeLa-ACE2-TMPRSS2 cells; for Intracellular amount, individual: listed as TKB-0248
SARS-CoV-2^WK-521 = test: microbe, parasite or virus in culture; type: cell-based; set-up: EC95, individual assays / EC95, Average: unit: µM
[6] = system: SARS-CoV-2^WK521 in HeLa-ACE2-TMPRSS2 cells; test: Antiviral assay, HeLa-ACE2-TMPRSS2 cells, WK521; type: cell-based
[7] = system: SARS-CoV-2 UT-NCD1757-1N/ο BA.2.75; test: microbe, parasite or virus in culture; type: cell-based
[8] = Pharmacokinetic study in PXB-mice (human liver-chimeric)

## CC(C)(C)[C@H](NC(=O)C(F)(F)F)C(=O)N1C[C@H]2[C@@H]([C@H]1C(=S)N[C@@H](C[C@@H]1CCNC1=O)C(=O)c1nc3c(F)cccc3s1)C2(C)C [TKB248]
Human calpain
  Effect on human calpain (in words): neither of human cysteine enzymes, cathepsin L and calpain, were significantly affected
Human calpain; 0.000128 µM
  %inhibition against humanCalpain: 0%
Human calpain; 0.00064 µM
  %inhibition against humanCalpain: 0%
Human calpain; 0.0032 µM
  %inhibition against humanCalpain: 0%
Human calpain; 0.08 µM
  %inhibition against humanCalpain: 0%
Human calpain; 0.4 µM
  %inhibition against humanCalpain: 0%
Human calpain; 2 µM
  %inhibition against humanCalpain: 1%
Human calpain; 60 minute incubation, mean ± 1 S.D., n=3, read-out: IC50, human calpains
  IC50: > 2000 nM
[1]; read-out: EC50 against KTKYX00012/ο BA.1
  EC50: 282 ± 43 nM
[1]; read-out: EC50 ο BA1, Average
  EC50: 282 nM
[1]; read-out: EC50 ο BA1, individual assays
  EC50: 290 nM and 235 nM and 320 nM
[2]; read-out: EC50 against TKYVS2037/ο BA.2
  EC50: 210 ± 87 nM
[2]; read-out: EC50 ο BA2, individual assays
  EC50: 150 nM
[3]
  Body weights and survival rates: no significant changes were recorded
[4]; SARS-CoV-2^WK521, read-out: EC50, A549-ACE2-TMPRSS2
  EC50: 199 ± 5 nM
[4]; source data, listed as TKB0248, read-out: EC50, A549-AEC2-TMPRSS2, individual assays
  EC50: 200 nM and 204 nM and 193 nM
[4]; source data, read-out: EC50, A549-AEC2-TMPRSS2, Average
  EC50: 199 nM
[5]; read-out: EC50 against TKYTS14631/ο BA.5
  EC50: 70 ± 8 nM
[5]; read-out: EC50 ο BA5, Average
  EC50: 70.7 nM
[5]; read-out: EC50 ο BA5, individual assays
  EC50: 67.1 nM and 80 nM and 65 nM
HeLa-ACE2-TMPRSS2 cells; 50 µM
  Intracellular amount relative to nirmatrelvir: 318 fold
HeLa-ACE2-TMPRSS2 cells; 100 µM
  Intracellular amount relative to nirmatrelvir: 165 fold
HeLa-ACE2-TMPRSS2 cells; Hela ACE2 TMPRSS2, 10uM
  Intracellular amount, avg: 295.717 pmol(total)
  Intracellular amount, individual: 295.283 pmol(total) and 296.151 pmol(total)
HeLa-ACE2-TMPRSS2 cells; Hela ACE2 TMPRSS2, 50uM
  Intracellular amount, avg: 570.720 pmol(total)
  Intracellular amount, individual: 643.805 pmol(total) and 497.635 pmol(total)
HeLa-ACE2-TMPRSS2 cells; Hela ACE2 TMPRSS2, 100uM
  Intracellular amount, avg: 630.843 pmol(total)
  Intracellular amount, individual: 605.189 pmol(total) and 656.496 pmol(total)
SARS-CoV-2^WK-521
  EC95, Average: 0.8712
  EC95, individual assays: 0.89 and 0.81 and 0.885 and 0.9
  SARS-CoV2 RNA VeroE6 cell-based assay EC95: 870 ± 40 nM
SARS-CoV-2^WK-521; read-out: EC50, Average
  EC50: 225 nM
SARS-CoV-2^WK-521; read-out: EC50, VeroE6 + 2 µM CP100356
  EC50: 30 ± 30 nM
SARS-CoV-2^WK-521; read-out: EC50, VeroE6 with CP100356, Average
  EC50: 35 nM
SARS-CoV-2^WK-521; read-out: EC50, VeroE6 with CP100356, individual assays
  EC50: 23 nM and 65 nM and 17 nM
SARS-CoV-2^WK-521; read-out: EC50, individual assays
  EC50: 310 nM and 230 nM and 240 nM and 120 nM
SARS-CoV-2^WK-521; read-out: SARS-CoV2 RNA VeroE6 cell-based assay EC50
  EC50: 220 ± 80 nM
[6]; SARS-CoV-2^WK521, read-out: EC50, HeLa-ACE2-TMPRSS2
  EC50: 160 ± 75 nM
[6]; source data, listed as TKB0248, read-out: EC50, HeLa-AEC2-TMPRSS2, individual assays
  EC50: 230 nM and 80 nM and 170 nM
[7]; read-out: EC50 against UT-NCD1757-1N/ο BA.2.75
  EC50: 430 ± 91 nM
[7]; read-out: EC50 ο BA2.75, individual assays
  EC50: 430 nM and 320 nM and 250 nM
[8]; N = 3 male PXB-mouse, 10 mg/kg p.o.
  Cmax: 1,925¶ ng/mL
[8]; N = 3 male PXB-mouse, 10 mg/kg, oral (p.o.) value for TKB245
  T1/2: 4.34¶ h
[8]; PXB-mice, i.v. 10 mg/kg, 10 min, individual mice, listed as TKB0248, 10 mg/kg
  Plasma concentration: 8186.6 ng/mL and 8038.7 ng/mL and 9327.7 ng/mL
[8]; PXB-mice, i.v. 10 mg/kg, 0.17 hr, individual mice, listed as TKB0248, 10 mg/kg
  Plasma concentration: 8190 ng/mL and 8040 ng/mL and 9330 ng/mL
[8]; PXB-mice, i.v. 10 mg/kg, 60 min, individual mice, listed as TKB0248, 10 mg/kg
  Plasma concentration: 3193.2 ng/mL and 4290.6 ng/mL and 4927 ng/mL
[8]; PXB-mice, i.v. 10 mg/kg, 1 hr, individual mice, listed as TKB0248, 10 mg/kg
  Plasma concentration: 3190 ng/mL and 4290 ng/mL and 4930 ng/mL
[8]; PXB-mice, i.v. 10 mg/kg, 240 min, individual mice, listed as TKB0248, 10 mg/kg
  Plasma concentration: 955 ng/mL and 1072.2 ng/mL and 1659.6 ng/mL
[8]; PXB-mice, i.v. 10 mg/kg, 4 hr, individual mice, listed as TKB0248, 10 mg/kg
  Plasma concentration: 960 ng/mL and 1070 ng/mL and 1660 ng/mL
[8]; PXB-mice, i.v. 10 mg/kg, 480 min, individual mice, listed as TKB0248, 10 mg/kg
  Plasma concentration: 290 ng/mL and 301.5 ng/mL and 497.6 ng/mL
[8]; PXB-mice, i.v. 10 mg/kg, 8 hr, individual mice, listed as TKB0248, 10 mg/kg
  Plasma concentration: 290 ng/mL and 300 ng/mL and 500 ng/mL
[8]; PXB-mice, i.v. 10 mg/kg, 1440 min, individual mice, listed as TKB0248, 10 mg/kg
  Plasma concentration: 13.9 ng/mL and 20.8 ng/mL and 20 ng/mL
[8]; PXB-mice, i.v. 10 mg/kg, 24 hr, individual mice, listed as TKB0248, 10 mg/kg
  Plasma concentration: 0.01 µg/ml and 0.02 µg/ml (2×)
[8]; PXB-mice, p.o. 10 mg/kg, 10 min, individual mice, listed as TKB0248, 10 mg/kg
  Plasma concentration: 803.8 ng/mL and 639.6 ng/mL and 800.1 ng/mL
[8]; PXB-mice, p.o. 10 mg/kg, 0.17 hr, individual mice, listed as TKB0248, 10 mg/kg
  Plasma concentration: 0.8 µg/ml (2×) and 0.64 µg/ml
[8]; PXB-mice, p.o. 10 mg/kg, 60 min, individual mice, listed as TKB0248, 10 mg/kg
  Plasma concentration: 2400.6 ng/mL and 1592.1 ng/mL and 1781.9 ng/mL
[8]; PXB-mice, p.o. 10 mg/kg, 1 hr, individual mice, listed as TKB0248, 10 mg/kg
  Plasma concentration: 2400 ng/mL and 1590 ng/mL and 1780 ng/mL
[8]; PXB-mice, p.o. 10 mg/kg, 240 min, individual mice, listed as TKB0248, 10 mg/kg
  Plasma concentration: 1886.1 ng/mL and 944.6 ng/mL and 788.3 ng/mL
[8]; PXB-mice, p.o. 10 mg/kg, 4 hr, individual mice, listed as TKB0248, 10 mg/kg
  Plasma concentration: 1890 ng/mL and 940 ng/mL and 790 ng/mL
[8]; PXB-mice, p.o. 10 mg/kg, 480 min, individual mice, listed as TKB0248, 10 mg/kg
  Plasma concentration: 645.5 ng/mL and 263.6 ng/mL and 711 ng/mL
[8]; PXB-mice, p.o. 10 mg/kg, 8 hr, individual mice, listed as TKB0248, 10 mg/kg
  Plasma concentration: 650 ng/mL and 260 ng/mL and 710 ng/mL
[8]; PXB-mice, p.o. 10 mg/kg, 1440 min, individual mice, listed as TKB0248, 10 mg/kg
  Plasma concentration: 66.2 ng/mL and 80.3 ng/mL and 54.4 ng/mL
[8]; PXB-mice, p.o. 10 mg/kg, 24 hr, individual mice, listed as TKB0248, 10 mg/kg
  Plasma concentration: 70 ng/mL and 80 ng/mL and 50 ng/mL
[8]; male PXB-mouse 10 mg/kg i.v. and p.o., dose-normalized AUC ratio, 10 mg/kg
  Oral F: 72% and 72¶ %
[8]; p.o., 10 min, individual animals (3 per time point), LC/MS/MS, listed as TKB0248
  Plasma concentration: 803.78 ng/mL and 639.58 ng/mL and 800.12 ng/mL
[8]; p.o., 60 min, individual animals (3 per time point), LC/MS/MS, listed as TKB0248
  Plasma concentration: 2400.63 ng/mL and 1592.07 ng/mL and 1781.87 ng/mL
[8]; p.o., 240 min, individual animals (3 per time point), LC/MS/MS, listed as TKB0248
  Plasma concentration: 1886.06 ng/mL and 944.61 ng/mL and 788.27 ng/mL
[8]; p.o., 480 min, individual animals (3 per time point), LC/MS/MS, listed as TKB0248
  Plasma concentration: 645.53 ng/mL and 263.61 ng/mL and 711.03 ng/mL
[8]; p.o., 1440 min, individual animals (3 per time point), LC/MS/MS, listed as TKB0248
  Plasma concentration: 66.21 ng/mL and 80.35 ng/mL and 54.38 ng/mL
